Results on eleven compounds are retold here after ChEMBL document CHEMBL1201862, “PubChem BioAssay data set” (2004).

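How tested: cells in 96-well plates exposed to compound for 48 hours at five concentrations. Abbreviation: GI50, concentration required for 50% inhibition of growth.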 The source made the active and inactive calls. Cut-off read from the data, not from the text of the source: active = GI50 up to about 1.1 µM and inactive = higher.

Test systems include 786-0; A498; CCRF-CEM; EKVX; HCT-15; HOP-62; HOP-92; HT-29; Hs-578T; LOX IMVI; MOLT-4; OVCAR-3; OVCAR-8; SF-295; SN12C; SW-620; T47D; Malme-3M; HL-60; SR.
Holding throughout (assay): DTP human tumour cell line panel, 48 h

Broadly, the GI50 is the concentration at which growth is held to half of that of the control. Consider `CC(=O)O[C@@H]1CC[C@@]2(C)C(CC[C@H]3[C@@H]4CC[C@H]([C@H](C)CCc5nc6cc(C)ccc6[nH]5)[C@@]4(C)CC[C@@H]32)C1` (stereo partly drawn), for which the GI50 is 8.69 µM (inactive) in the assay on 786-0; 92.7 µM (inactive) in the assay with A498; 3.44 µM (inactive) in the assay with CCRF-CEM; 9.64 µM (inactive) with EKVX; 46.6 µM in the assay with HCT-15; 13.1 µM (inactive) with HOP-62. The GI50 was 69.5 µM (inactive) in the assay on HOP-92; 12.4 µM (inactive) in the assay on HT-29; 13.9 µM (inactive) in the assay on Hs-578T; 1.66 µM (inactive) with LOX IMVI; 28.1 µM (inactive) in the assay on MOLT-4; 20.9 µM (inactive) with OVCAR-3. For the same compound, the GI50 was 11 µM (inactive) in the assay on OVCAR-8; 12 µM (inactive) in the assay with SF-295; 41.5 µM (inactive) in the assay on SN12C; > 100 µM (inactive) in the assay on SW-620; 0.0352 µM (active) with T47D.
For `Clc1ccc(C2ON=C(c3ccccc3)N2C23CC4CC(CC(C4)C2)C3)c(Cl)c1` (stereo not drawn), the GI50 in the assay on 786-0 was > 10 µM (inactive); in the assay with A498 it was > 10 µM (inactive); in the assay on CCRF-CEM, > 10 µM (inactive); with EKVX it was > 10 µM (inactive); in the assay with HCT-15, more than 10 µM; with HOP-62, > 10 µM (inactive). Further, the GI50 in the assay on HOP-92, with HT-29, with Hs-578T, with LOX IMVI, with MOLT-4 and in the assay with Malme-3M was > 10 µM (inactive) each time. Also, the GI50 in the assay on OVCAR-3, in the assay with OVCAR-8, with SF-295, in the assay with SN12C, in the assay with SW-620 and in the assay on T47D was > 10 µM (inactive) in each case.
Consider `Cc1nc(/C(=N\n2cnnc2)Nc2ccc(Br)cc2)no1`, for which the GI50 in the assay with 786-0 was > 100 µM (inactive); in the assay with A498, > 100 µM (inactive); in the assay with CCRF-CEM, > 100 µM (inactive); with EKVX it was > 100 µM (inactive); with HCT-15, more than 100 µM; in the assay with HOP-62 it was > 100 µM (inactive). Besides, the GI50 in the assay on HOP-92, in the assay on HT-29, with Hs-578T, in the assay on MOLT-4, in the assay with Malme-3M and in the assay on OVCAR-3 was > 100 µM (inactive) throughout. Moreover, the GI50 in the assay with OVCAR-8, in the assay on SF-295, in the assay with SW-620 and with T47D was > 100 µM (inactive) in each case.
As for `CC(C)OC1=C(CC2(C)OCCO2)C(=O)C12OCCO2`, the GI50 in the assay with 786-0 is > 100 µM (inactive); with A498, > 100 µM (inactive); in the assay with CCRF-CEM, > 100 µM (inactive); in the assay on EKVX, > 100 µM (inactive); with HCT-15 it was more than 100 µM; with HL-60, > 100 µM (inactive). Further, the GI50 in the assay with HOP-62, in the assay on HOP-92, in the assay with HT-29, in the assay on Hs-578T, in the assay on LOX IMVI and in the assay with MOLT-4 was > 100 µM (inactive) throughout. Moreover, the GI50 in the assay on OVCAR-3, in the assay with OVCAR-8, with SF-295, in the assay on SN12C, in the assay on SW-620 and in the assay with T47D was > 100 µM (inactive) throughout.
As to `CC1(C)OC[C@@H]([C@H](C=O)OCc2ccccc2)O1`, the GI50 with 786-0 is > 100 µM (inactive); in the assay on A498, > 100 µM (inactive); with CCRF-CEM it was > 100 µM (inactive); in the assay with EKVX, > 100 µM (inactive); with HCT-15, more than 100 µM; with HOP-62, > 100 µM (inactive). In addition, the GI50 in the assay on HOP-92, in the assay with HT-29, with Hs-578T, in the assay on LOX IMVI, with MOLT-4 and with Malme-3M was > 100 µM (inactive) throughout. Moreover, the GI50 with OVCAR-3, with OVCAR-8, in the assay on SF-295, in the assay on SN12C, in the assay on SR and in the assay with SW-620 was > 100 µM (inactive) in each case.
As for `CN(C)CCNc1ccc(NCC[N+](C)(C)Cc2ccc([N+](=O)[O-])cc2)c2c1C(=O)c1c(O)ccc(O)c1C2=O`, the GI50 is 18.2 µM (inactive) with 786-0; > 100 µM (inactive) in the assay with A498; 11.5 µM (inactive) in the assay with CCRF-CEM; > 100 µM (inactive) in the assay with EKVX; 6.82 µM in the assay with HCT-15; 54.2 µM (inactive) in the assay with HL-60. The GI50 was 79.3 µM (inactive) in the assay on HOP-62; 25.8 µM (inactive) with HT-29; 28.9 µM (inactive) with Hs-578T; 25.5 µM (inactive) in the assay with LOX IMVI; 0.509 µM (active) with MOLT-4; > 100 µM (inactive) with OVCAR-3. The GI50 is > 100 µM (inactive) with OVCAR-8, 12.2 µM (inactive) in the assay on SN12C, 27.9 µM (inactive) in the assay with SW-620 and 36.3 µM (inactive) with T47D.
As to `Cc1ccc2c(=O)c(C(=O)N(CCO)CCO)c[nH]c2n1`, the GI50 with 786-0 is > 100 µM (inactive); in the assay on A498 it was > 100 µM (inactive); in the assay on CCRF-CEM, > 100 µM (inactive); in the assay with EKVX, > 100 µM (inactive); in the assay on HCT-15, more than 100 µM; with HL-60, > 100 µM (inactive). The GI50 in the assay with HOP-62, in the assay with HT-29, with Hs-578T, in the assay with LOX IMVI, in the assay on MOLT-4 and in the assay with Malme-3M was > 100 µM (inactive) each time. In addition, the GI50 in the assay on OVCAR-3, in the assay on OVCAR-8, in the assay on SF-295, in the assay on SN12C, in the assay with SW-620 and in the assay on T47D was > 100 µM (inactive) each time.
As for `CN1C(=O)c2c(ccc3c2OCO3)C2C(O)Cc3cc4c(cc3C21)OCO4` (stereo not drawn), the GI50 with 786-0 is 4.17 µM (inactive); with A498, 3.18 µM (inactive); with CCRF-CEM, 3.37 µM (inactive); with EKVX, 3.28 µM (inactive); in the assay with HCT-15, 3.73 µM; in the assay on HL-60 it was 2.4 µM (inactive). Besides, the GI50 in the assay on HOP-92 is 5.79 µM (inactive); in the assay with HT-29, 3.3 µM (inactive); in the assay on Hs-578T it was 5.26 µM (inactive); with LOX IMVI, 9.12 µM (inactive); in the assay with MOLT-4, 4.04 µM (inactive); with OVCAR-3 it was 5.2 µM (inactive). Besides, the GI50 with OVCAR-8 was 5.11 µM (inactive); in the assay on SF-295, 1.71 µM (inactive); with SN12C, 4.15 µM (inactive); in the assay with SW-620, 3.79 µM (inactive).
As to `N#Cc1nc(-c2ccccc2O)oc1N`, the GI50 in the assay with 786-0 was 70.1 µM (inactive); with A498, 80.9 µM (inactive); in the assay on CCRF-CEM, 16.4 µM (inactive); in the assay on EKVX, 48.5 µM (inactive); in the assay with HCT-15, 43.5 µM; in the assay with HL-60 it was > 100 µM (inactive). For the same compound, the GI50 in the assay on HOP-62 is > 100 µM (inactive); with HOP-92 it was > 100 µM (inactive); in the assay on HT-29, > 100 µM (inactive); in the assay with Hs-578T it was 40.9 µM (inactive); with LOX IMVI, 53.7 µM (inactive); in the assay with MOLT-4, 60.4 µM (inactive). Further, the GI50 with OVCAR-8 was 89.1 µM (inactive); in the assay on SN12C, 81.1 µM (inactive); in the assay with SW-620 it was 65 µM (inactive).
Take `COC(=O)C1=C(OC)[C@H]2C#C/C=C\C#C[C@@H]3Nc4c(cc(O)c5c4C(=O)c4ccccc4C5=O)[C@]24O[C@@]34[C@H]1C`: the GI50 was < 0.01 µM (active) in the assay on 786-0; < 0.01 µM (active) with A498; < 0.01 µM (active) in the assay on CCRF-CEM; < 0.012 µM (active) with EKVX; less than 0.01 µM with HCT-15; < 0.01 µM (active) in the assay on HL-60. Also, the GI50 in the assay on HOP-62 was < 0.01 µM (active); in the assay on HOP-92 it was < 0.01 µM (active); in the assay on HT-29, < 0.01 µM (active); in the assay on Hs-578T, 0.173 µM (active); in the assay on LOX IMVI it was < 0.01 µM (active); in the assay with MOLT-4, < 0.01 µM (active). The GI50 is < 0.01 µM (active) in the assay on Malme-3M; < 0.0153 µM (active) with OVCAR-3; < 0.01 µM (active) in the assay with OVCAR-8; < 0.01 µM (active) with SF-295; < 0.01 µM (active) with SN12C; < 0.01 µM (active) in the assay with SR. The GI50 in the assay with SW-620 is < 0.01 µM (active).
Turning to `CCOP(=O)(O)CC1OC(CO)C(O)C1O` (stereo not drawn), the GI50 in the assay on 786-0 is > 100 µM (inactive); with CCRF-CEM, > 100 µM (inactive); with EKVX, > 100 µM (inactive); with HCT-15 it was more than 100 µM; in the assay with HOP-62, > 100 µM (inactive); in the assay with HOP-92, > 100 µM (inactive). The GI50 in the assay with HT-29, in the assay with Hs-578T, with LOX IMVI, in the assay on MOLT-4, in the assay with Malme-3M and in the assay on OVCAR-3 was > 100 µM (inactive) in each case. Besides, the GI50 with OVCAR-8, in the assay on SF-295, in the assay with SN12C, in the assay with SW-620 and in the assay with T47D was > 100 µM (inactive) in each case.
